From PMC9889419 (Pharmacological Reports, 2022)
Counter-ions that a name gives are not always drawn.

Columns and labels:
Assay in all cases: Radioligand binding
[1] = target: T1, 5-HT1A (Homo sapiens, UniProt P08908)
T1 sequence (P08908 1-422): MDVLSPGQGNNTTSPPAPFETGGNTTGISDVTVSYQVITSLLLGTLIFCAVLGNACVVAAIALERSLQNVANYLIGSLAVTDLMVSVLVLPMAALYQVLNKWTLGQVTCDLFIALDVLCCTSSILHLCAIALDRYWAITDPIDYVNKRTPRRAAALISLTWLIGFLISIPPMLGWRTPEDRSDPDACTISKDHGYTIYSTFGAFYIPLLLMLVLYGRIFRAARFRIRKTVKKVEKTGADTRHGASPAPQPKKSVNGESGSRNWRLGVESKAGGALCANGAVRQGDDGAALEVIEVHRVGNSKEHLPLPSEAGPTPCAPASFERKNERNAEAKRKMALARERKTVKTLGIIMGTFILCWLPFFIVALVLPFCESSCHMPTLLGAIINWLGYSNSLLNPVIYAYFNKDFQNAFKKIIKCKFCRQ
Experimental: (§1) Radioligand binding. Radioligand binding assays were performed at Eurofins CEREP (France). The results are expressed as a percent of control specific binding (measured specific binding*100/control specific binding) and as a percent inhibition of control specific binding (100-(measured specific binding*100)/control specific binding) obtained in the presence of the test compounds. The IC50 values (concentration causing a half-maximal inhibition of control specific binding) and Hill coefficients (nH) were determined by non-linear regression analysis of the competition curves generated with mean replicate values using Hill equation curve fitting (Y = D + [A-D]/[1 + (C/C50)^nH], where Y = specific binding, A = left asymptote of the curve, D = right asymptote of the curve, C = compound concentration, C50 = IC50, and nH = slope factor). This analysis was performed using software developed at Cerep (Hill software) and validated by comparison with data generated by the commercial software SigmaPlot® 4.0 for Windows® (© 1997 by SPSS Inc.). The inhibition constants (Ki) were calculated using the Cheng Prusoff equation (Ki = IC50/[1 + L/KD], where L = concentration of radioligand in the assay, and KD = affinity of the radioligand for the receptor). A scatchard plot is used to determine the Kd.

[2] = target: D3 (Homo sapiens, UniProt P35462)
D3, sequence (P35462 whole entry): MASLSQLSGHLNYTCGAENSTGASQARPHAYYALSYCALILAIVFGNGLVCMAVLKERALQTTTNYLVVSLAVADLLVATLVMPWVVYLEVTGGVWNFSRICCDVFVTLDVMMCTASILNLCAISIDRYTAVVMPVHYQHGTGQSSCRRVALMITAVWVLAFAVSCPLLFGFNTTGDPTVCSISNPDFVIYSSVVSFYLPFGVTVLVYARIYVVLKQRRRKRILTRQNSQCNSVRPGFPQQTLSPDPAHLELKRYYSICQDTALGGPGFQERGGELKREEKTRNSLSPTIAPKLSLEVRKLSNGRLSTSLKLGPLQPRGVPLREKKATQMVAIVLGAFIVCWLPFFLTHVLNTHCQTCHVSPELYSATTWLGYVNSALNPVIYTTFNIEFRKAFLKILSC
Experimental: as §1

[3] = target: T2, M1 (Homo sapiens, UniProt P11229)
T2 sequence (P11229 1-460): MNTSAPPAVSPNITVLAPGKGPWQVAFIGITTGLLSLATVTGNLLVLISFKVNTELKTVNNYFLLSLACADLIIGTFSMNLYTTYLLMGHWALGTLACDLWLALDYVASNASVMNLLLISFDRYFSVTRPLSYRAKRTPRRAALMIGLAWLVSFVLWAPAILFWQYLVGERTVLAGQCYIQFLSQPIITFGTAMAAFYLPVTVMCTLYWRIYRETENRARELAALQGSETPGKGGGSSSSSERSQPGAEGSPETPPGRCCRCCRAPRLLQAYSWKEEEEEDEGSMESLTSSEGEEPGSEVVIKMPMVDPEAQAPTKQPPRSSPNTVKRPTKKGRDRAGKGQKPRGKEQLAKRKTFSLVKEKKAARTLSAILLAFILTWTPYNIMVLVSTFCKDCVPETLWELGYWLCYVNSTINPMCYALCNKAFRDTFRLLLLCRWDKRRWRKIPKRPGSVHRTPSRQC
Experimental: as §1

[4] = target: T3, D4.4 (Homo sapiens, UniProt P21917)
T3 sequence (P21917 1-419): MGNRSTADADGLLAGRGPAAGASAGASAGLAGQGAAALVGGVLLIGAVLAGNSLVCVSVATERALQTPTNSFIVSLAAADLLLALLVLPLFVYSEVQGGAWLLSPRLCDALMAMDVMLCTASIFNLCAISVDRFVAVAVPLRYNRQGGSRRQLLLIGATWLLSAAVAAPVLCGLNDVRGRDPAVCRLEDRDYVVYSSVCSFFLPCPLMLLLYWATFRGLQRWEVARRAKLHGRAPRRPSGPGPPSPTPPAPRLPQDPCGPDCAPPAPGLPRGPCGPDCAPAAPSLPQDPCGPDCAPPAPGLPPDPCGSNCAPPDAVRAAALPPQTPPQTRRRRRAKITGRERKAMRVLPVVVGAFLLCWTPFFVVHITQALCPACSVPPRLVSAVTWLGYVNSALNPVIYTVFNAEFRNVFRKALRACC
Experimental: as §1

[5] = target: 5-HT7 (Homo sapiens, UniProt P34969)
5-HT7, sequence (P34969 whole entry): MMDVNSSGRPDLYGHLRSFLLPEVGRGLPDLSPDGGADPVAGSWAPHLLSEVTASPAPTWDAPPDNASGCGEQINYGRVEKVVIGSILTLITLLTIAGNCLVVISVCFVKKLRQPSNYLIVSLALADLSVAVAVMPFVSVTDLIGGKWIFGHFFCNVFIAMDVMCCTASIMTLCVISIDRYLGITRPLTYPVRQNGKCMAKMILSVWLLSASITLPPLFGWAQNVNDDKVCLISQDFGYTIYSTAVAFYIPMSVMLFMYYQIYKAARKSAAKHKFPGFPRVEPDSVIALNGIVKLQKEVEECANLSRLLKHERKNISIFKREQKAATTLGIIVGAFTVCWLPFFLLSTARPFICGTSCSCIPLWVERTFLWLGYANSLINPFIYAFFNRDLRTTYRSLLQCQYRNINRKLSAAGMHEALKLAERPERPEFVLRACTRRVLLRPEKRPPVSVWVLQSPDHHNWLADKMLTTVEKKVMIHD
Experimental: as §1

[6] = target: κ (KOP) (Rattus norvegicus, UniProt P34975)
κ (KOP), sequence (P34975 whole entry): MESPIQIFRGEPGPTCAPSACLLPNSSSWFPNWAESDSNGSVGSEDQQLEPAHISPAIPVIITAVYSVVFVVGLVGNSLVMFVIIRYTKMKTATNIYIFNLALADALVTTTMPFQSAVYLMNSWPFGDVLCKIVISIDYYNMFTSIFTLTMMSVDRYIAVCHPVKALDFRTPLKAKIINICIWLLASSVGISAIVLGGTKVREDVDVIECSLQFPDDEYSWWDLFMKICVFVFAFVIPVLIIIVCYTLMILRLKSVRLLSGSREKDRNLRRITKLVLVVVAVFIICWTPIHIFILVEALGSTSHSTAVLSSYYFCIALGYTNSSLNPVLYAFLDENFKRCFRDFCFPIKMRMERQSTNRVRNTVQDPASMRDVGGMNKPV
Experimental: as §1

[7] = target: 5-HT2A (Homo sapiens, UniProt P28223)
5-HT2A, sequence (P28223 whole entry): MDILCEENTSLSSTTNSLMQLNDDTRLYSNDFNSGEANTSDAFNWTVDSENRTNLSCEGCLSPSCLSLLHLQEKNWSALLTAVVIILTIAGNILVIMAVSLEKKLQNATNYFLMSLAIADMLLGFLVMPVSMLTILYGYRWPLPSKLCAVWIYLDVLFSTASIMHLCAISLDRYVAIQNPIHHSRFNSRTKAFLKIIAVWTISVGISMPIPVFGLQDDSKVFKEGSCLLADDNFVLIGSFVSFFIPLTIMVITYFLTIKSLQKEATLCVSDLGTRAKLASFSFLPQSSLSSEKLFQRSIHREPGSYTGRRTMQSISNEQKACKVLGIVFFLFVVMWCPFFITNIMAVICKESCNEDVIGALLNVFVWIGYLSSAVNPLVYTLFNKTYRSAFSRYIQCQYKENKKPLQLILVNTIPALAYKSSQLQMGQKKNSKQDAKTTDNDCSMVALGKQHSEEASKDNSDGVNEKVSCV
Experimental: as §1

[8] = target: T4, 5-HT2C (Homo sapiens, UniProt P28335)
T4 sequence (P28335 33-458): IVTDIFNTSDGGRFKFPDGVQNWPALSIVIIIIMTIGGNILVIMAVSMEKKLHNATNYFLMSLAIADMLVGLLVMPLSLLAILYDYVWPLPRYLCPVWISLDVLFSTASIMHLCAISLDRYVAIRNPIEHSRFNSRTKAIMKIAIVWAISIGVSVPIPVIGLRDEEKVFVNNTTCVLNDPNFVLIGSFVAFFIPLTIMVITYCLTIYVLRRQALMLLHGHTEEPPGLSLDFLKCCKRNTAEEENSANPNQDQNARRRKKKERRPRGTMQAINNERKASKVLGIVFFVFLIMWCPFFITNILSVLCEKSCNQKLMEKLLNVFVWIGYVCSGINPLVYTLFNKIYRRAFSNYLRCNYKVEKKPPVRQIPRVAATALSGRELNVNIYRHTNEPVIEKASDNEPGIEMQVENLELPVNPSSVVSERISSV
Experimental: as §1

[9] = target: dopamine transporter (Homo sapiens, UniProt Q01959)
dopamine transporter, sequence (Q01959 whole entry): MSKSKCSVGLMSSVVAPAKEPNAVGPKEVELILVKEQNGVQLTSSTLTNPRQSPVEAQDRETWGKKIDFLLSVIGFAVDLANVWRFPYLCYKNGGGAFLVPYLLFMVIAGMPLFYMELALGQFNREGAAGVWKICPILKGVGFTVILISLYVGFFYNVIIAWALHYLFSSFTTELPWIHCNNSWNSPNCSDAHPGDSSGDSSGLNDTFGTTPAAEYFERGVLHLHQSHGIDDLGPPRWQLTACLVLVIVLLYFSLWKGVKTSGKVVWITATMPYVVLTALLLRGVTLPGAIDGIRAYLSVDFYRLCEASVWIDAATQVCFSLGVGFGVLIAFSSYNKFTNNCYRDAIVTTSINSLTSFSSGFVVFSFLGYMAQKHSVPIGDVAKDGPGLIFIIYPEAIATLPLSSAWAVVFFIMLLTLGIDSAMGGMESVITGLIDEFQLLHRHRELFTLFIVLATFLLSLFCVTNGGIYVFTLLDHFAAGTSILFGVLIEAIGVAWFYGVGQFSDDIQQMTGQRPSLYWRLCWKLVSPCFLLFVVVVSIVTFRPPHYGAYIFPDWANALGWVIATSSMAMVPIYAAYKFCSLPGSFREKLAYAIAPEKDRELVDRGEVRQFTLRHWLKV
Experimental: as §1

[10] = 0.01 μM, read-out: % of control specific binding
[11] = 0.1 μM, read-out: % of control specific binding
[12] = 1 μM, read-out: % of control specific binding
[13] = 10 μM, read-out: % of control specific binding
[14] = 3 μM, read-out: % of control specific binding
[15] = 100 μM, read-out: % of control specific binding

CCC(CO)NCCOc1c(C)cccc1Cl (stereo not drawn) [Compound 4, R,S-2-((2-(2-chloro-6-methylphenoxy)ethyl)amino)butan-1-ol]
% of control specific binding ([1]; 100 μM): 2.1% | % of control specific binding ([2]; 100 μM): 11.9% | % of control specific binding ([3]; 100 μM): 46.7% | % of control specific binding ([4]; 100 μM): 26.6% | % of control specific binding ([5]; 100 μM): 26.4% | % of control specific binding ([6]; 100 μM): 29.0% | % of control specific binding ([7]; 100 μM): 37.1% | % of control specific binding ([8]; 100 μM): 44.6% | % of control specific binding ([9]; 100 μM): 29.6%

CCC(CO)NCCOc1c(C)cccc1Cl (stereo not drawn) [KM-408, R,S-2-((2-(2-chloro-6-methylphenoxy)ethyl)amino)butan-1-ol hydrochloride]
IC50 [1]: 1.3 µM | Ki [1]: 0.8 µM | remaining activity at 0.001 µM ([1]; 0.001 μM, read-out: % of control specific binding): 100% | remaining activity at 0.01 µM [1, 10]: 95.9% | remaining activity at 0.1 µM [1, 11]: 88.6% | remaining activity at 1 µM [1, 12]: 55.6% | remaining activity at 10 µM [1, 13]: 12.5% | IC50 [2]: 22 µM | Ki [2]: 4.9 µM | remaining activity at 0.003 µM ([2]; 0.003 μM, read-out: % of control specific binding): 104% | remaining activity at 0.03 µM ([2]; 0.03 μM, read-out: % of control specific binding): 103% | remaining activity at 0.3 µM ([2]; 0.3 μM, read-out: % of control specific binding): 102% | remaining activity at 3 µM [2, 14]: 95.3% | remaining activity at 30 µM ([2]; 30 μM, read-out: % of control specific binding): 42.5% | IC50 [3]: 64 µM | Ki [3]: 55 µM | remaining activity at 0.1 µM [3, 11]: 114% | remaining activity at 1 µM [3, 12]: 108% | remaining activity at 3 µM [3, 14]: 123% | remaining activity at 10 µM [3, 13]: 99.7% | remaining activity at 100 µM [3, 15]: 43.1% | IC50 [4]: 66 µM | Ki [4]: 25 µM | remaining activity at 0.01 µM [4, 10]: 100% | remaining activity at 0.1 µM [4, 11]: 101% | remaining activity at 1 µM [4, 12]: 97.6% | remaining activity at 10 µM [4, 13]: 87.9% | remaining activity at 100 µM [4, 15]: 39.4% | IC50 [5]: 18 µM | Ki [5]: 6.5 µM | remaining activity at 0.01 µM [5, 10]: 107% | remaining activity at 0.1 µM [5, 11]: 106% | remaining activity at 1 µM [5, 12]: 105% | remaining activity at 10 µM [5, 13]: 66.1% | remaining activity at 100 µM [5, 15]: 20.2% | IC50 [6]: 25 µM | Ki [6]: 17 µM | remaining activity at 0.01 µM [6, 10]: 104% | remaining activity at 0.1 µM [6, 11]: 98.3% | remaining activity at 1 µM [6, 12]: 97.3% | remaining activity at 10 µM [6, 13]: 72.1% | remaining activity at 100 µM [6, 15]: 21.1% | IC50 [7]: 55 µM | Ki [7]: 30 µM | remaining activity at 0.1 µM [7, 11]: 104% | remaining activity at 1 µM [7, 12]: 95% | remaining activity at 3 µM [7, 14]: 94.1% | remaining activity at 10 µM [7, 13]: 85.1% | remaining activity at 100 µM [7, 15]: 36.9% | IC50 [8]: 77 µM | Ki [8]: 26 µM | remaining activity at 0.1 µM [8, 11]: 95.6% | remaining activity at 1 µM [8, 12]: 87.1% | remaining activity at 3 µM [8, 14]: 95.2% | remaining activity at 10 µM [8, 13]: 82.4% | remaining activity at 100 µM [8, 15]: 40.6% | IC50 [9]: 43 µM | Ki [9]: 23 µM | remaining activity at 0.1 µM [9, 11]: 93.9% | remaining activity at 1 µM [9, 12]: 87.8% | remaining activity at 3 µM [9, 14]: 94.4% | remaining activity at 10 µM [9, 13]: 72.6% | remaining activity at 100 µM [9, 15]: 29.6%
